# In patent publication US9156796B2, “Benzoimidazole-carboxylic acid amide derivatives as APJ receptor modulators” (SANOFI, priority 2013, dated 2015):
# Target: T1, human apelin receptor (Homo sapiens, UniProt P35414)
# T1 construct: expressed in transfected cells
# T1 sequence (P35414 1-380): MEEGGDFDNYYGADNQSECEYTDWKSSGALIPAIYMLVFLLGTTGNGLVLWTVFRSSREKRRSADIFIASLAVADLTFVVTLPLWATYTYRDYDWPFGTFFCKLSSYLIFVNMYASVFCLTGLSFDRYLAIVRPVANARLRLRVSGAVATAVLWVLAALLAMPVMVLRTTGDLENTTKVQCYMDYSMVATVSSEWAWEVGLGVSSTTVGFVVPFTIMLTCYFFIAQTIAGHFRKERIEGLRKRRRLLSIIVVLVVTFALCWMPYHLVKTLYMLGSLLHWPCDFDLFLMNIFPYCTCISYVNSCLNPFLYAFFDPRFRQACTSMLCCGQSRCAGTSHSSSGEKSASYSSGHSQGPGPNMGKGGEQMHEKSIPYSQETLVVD
# Experiment: Determination of agonism on the human apelin receptor by a calcium fluorescence assay (FLIPR)
# Format: cell-based
# Settings: HEK293 cells stably transfected with human apelin receptor and Giaq protein, Fluo-4 calcium fluorescence, read-out: EC50 (APJ agonism)
# Source text: Determination of Agonism on the Human Apelin Receptor by a Calcium Fluorescence Assay (FLIPR)
# The assay is based on the detection of intracellular calcium changes detected by the selective, calcium-chelating dye Fluo-4 (Molecular Probes). A large fluorescence intensity increase is observed upon calcium association with Fluo-4. The dye is delivered to the cell interior using an acetoxymethylester form of Fluo-4, where the intracellular esterase activity results in the charged species being released and trapped within the cytoplasm of the cell. […] By co-expressing the human apelin receptor and a promiscuous Giaq protein, agonism of the apelin receptor couples to phospholipase-C resulting in intracellular calcium mobilization.
# The HEK293 cells were stably transfected with the human apelin receptor and the Giaq protein. Cells were selected and maintained in a log phase of growth at 37° and 5% CO2 in the Iscove's minimal essential medium, 10% fetal calf serum, 1× Penicillin-Streptomycin, 400 μg/mL G418. One day prior the assay, cells were passaged by accutase and plated at a density of 50,000 cells/well onto a 96-well plates with black border but clear bottom (Costar, cat#3904) in a final volume of 200 μl growth medium.
# In order to load the cells the next day with the calcium-sensitive dye, growth medium was carefully replaced by dye solution (100 μl/well) containing Fluo-4 (4 μM) in basic measurement buffer (135 mM NaCl, 5 mM KCl, 1 mM magnesium sulphate, 5 mM glucose, 20 mM Hepes, 2.5 mM probenecid; adjusted to pH 7.4). Cells were incubated for 1 h at 37° C., and then washed 3× with buffer containing no dye. The washer was programmed to leave a remaining volume of 150 μl after the third wash in the plate.
# During the dye-loading of the cells, a serial compound dilution was performed in a separate 96-well plate with overall 4× increased concentrations. Small aliquots of DMSO stock solutions of the compounds (10 mM in 100% DMSO were aliquoted into 150 μl buffer in the first rows of the 96-well plates, and then serially diluted by a factor of 1:3 transferring each time 30 μl to the next rows already containing 60 μl buffer. All compounds were tested in a least 7 concentrations, each condition was performed in triplicates. As comparator, we used freshly prepared apelin-13 solutions, for which also a concentration-response curve was determined at each measurement day. The compound plate was incubated for 10 min after the final dilutions steps at 37° C. before transferring the dye-loaded cell plate and the compound plate into a FLIPR Tetra reader (Molecular Devices). Measurement within this reader started by pipetting the agonist solution (50 μl) on the cell plate. Overall perform 60 reads were performed with an interval of 2 sec. The maximum of the fluorescence transient was used to calculate the agonistic response of the cells. In order to normalize this response, which may vary from plate to plate we set the maximum fluorescence achieved by 1 μM apelin-13 on this plate as 100%.
# EC-50 values for apelin-13 and the apelin receptor compounds described in this patent were determined by standard algorithms using a specific software package.
row,Compound,EC50
1,"C[C@@H]1CCCC[C@H]1n1c(Cc2cccs2)nc2cc(C(=O)NC3(CC(=O)O)CCCCC3)ccc21 [Example 66, (1-{[1-((1R,2R)-2-Methyl-cyclohexyl)-2-thiophen-2-ylmethyl-1H-benzoimidazole-5-carbonyl]-amino}-cyclohexyl)-acetic acid]",87 nM
2,"CCC(CC)n1c(Cc2cccs2)nc2cc(C(=O)N[C@@H](CC(C)C)C(=O)NCCCN(C)C)ccc21 [Example 224, 1-(1-Ethyl-propyl)-2-thiophen-2-ylmethyl-1H-benzoimidazole-5-carboxylic acid [(S)-1-(3-dimethylamino-propylcarbamoyl)-3-methyl-butyl]-amide]",300 nM
3,"CCC(CC)n1c(Cc2cccs2)nc2cc(C(=O)N[C@@H](Cc3ccc(Cl)c(Cl)c3)C(=O)O)ccc21 [Example 32, (S)-3-(3,4-Dichloro-phenyl)-2-{[1-(1-ethyl-propyl)-2-thiophen-2-ylmethyl-1H-benzoimidazole-5-carbonyl]-amino}-propionic acid]",4570 nM
4,"CC(C)C[C@H](NC(=O)c1ccc2c(c1)nc(Cc1cccs1)n2C1CCCC1C)C(=O)O (stereo partly drawn) [Example 90, (S)-4-Methyl-2-{[1-(2-methyl-cyclopentyl)-2-thiophen-2-ylmethyl-1H-benzoimidazole-5-carbonyl]-amino}-pentanoic acid]",472 nM
5,"CCC(CC)n1c(Cc2cccs2)nc2cc(C(=O)N[C@@H](CC(C)C)C(=O)N3CCN(C4CCCCC4)CC3)ccc21 [Example 318, 1-(1-Ethyl-propyl)-2-thiophen-2-ylmethyl-1H-benzoimidazole-5-carboxylic acid [(S)-1-(4-cyclohexyl-piperazine-1-carbonyl)-3-methyl-butyl]-amide]",2860 nM
6,"CCC(CC)n1c(Cc2cccs2)nc2cc(C(=O)N[C@@H](CC(C)C)C(=O)NC)ccc21 [Example 381, 1-(1-Ethyl-propyl)-2-thiophen-2-ylmethyl-1H-benzoimidazole-5-carboxylic acid ((S)-3-methyl-1-methylcarbamoyl-butyl)-amide]",970 nM
7,"CCC(CC)n1c(Cc2cccs2)nc2cc(C(=O)NC(C)(CC(C)C)C(=O)O)ccc21 (centres unmarked) [Example 12, 2-{[1-(1-Ethyl-propyl)-2-thiophen-2-ylmethyl-1H-benzoimidazole-5-carbonyl]-amino}-2,4-dimethyl-pentanoic acid]",818 nM
8,"CCCCC(CO)NC(=O)c1ccc2c(c1)nc(Cc1cccs1)n2C(CC)CC (centres unmarked) [Example 197, 1-(1-Ethyl-propyl)-2-thiophen-2-ylmethyl-1H-benzoimidazole-5-carboxylic acid (1-hydroxymethyl-pentyl)-amide]",1040 nM
9,"CCCC(CCO)NC(=O)c1ccc2c(c1)nc(Cc1cccs1)n2C(CC)CC (single isomer, unassigned) [Example 471]",5020 nM
10,"CCC(CC)n1c(Cc2ccc(C)s2)nc2cc(C(=O)N[C@@H](CC(C)C)C(=O)O)ccc21 [Example 119, (S)-2-{[1-(1-Ethyl-propyl)-2-(5-methyl-thiophen-2-ylmethyl)-1H-benzoimidazole-5-carbonyl]-amino}-4-methyl-pentanoic acid]",33100 nM
11,"CCC(CC)n1c(Cc2cccs2)nc2cc(C(=O)N[C@@H](CC(C)C)C(=O)NC3CCN(CCc4ccc(OC)cc4)CC3)ccc21 [Example 328, 1-(1-Ethyl-propyl)-2-thiophen-2-ylmethyl-1H-benzoimidazole-5-carboxylic acid ((S)-1-{1-[2-(4-methoxy-phenyl)-ethyl]-piperidin-4-ylcarbamoyl}-3-methyl-butyl)-amide]",1270 nM
12,"CCC(CC)n1c(Cc2cccs2)nc2cc(C(=O)N[C@@H](CC(C)C)C(=O)NC3CCN(CC4CCCCC4)CC3)ccc21 [Example 344, 1-(1-Ethyl-propyl)-2-thiophen-2-ylmethyl-1H-benzoimidazole-5-carboxylic acid [(S)-1-(1-cyclohexylmethyl-piperidin-4-ylcarbamoyl)-3-methyl-butyl]-amide]",1690 nM
13,"CCC(CC)n1c(Cc2cccs2)nc2cc(C(=O)N[C@@H](CC(C)C)C(=O)NC3CCN(Cc4cccnc4)CC3)ccc21 [Example 308, 1-(1-Ethyl-propyl)-2-thiophen-2-ylmethyl-1H-benzoimidazole-5-carboxylic acid [(S)-3-methyl-1-(1-pyridin-3-ylmethyl-piperidin-4-ylcarbamoyl)-butyl]-amide]",672 nM
14,"CCC(CC)n1c(Cc2ccco2)nc2cc(C(=O)NC(CC(=O)O)c3ccccc3)ccc21 (centres unmarked) [Example 42, 3-{[1-(1-Ethyl-propyl)-2-furan-2-ylmethyl-1H-benzoimidazole-5-carbonyl]-amino}-3-phenyl-propionic acid]",1100 nM
15,"CCC(CC)n1c(Cc2cccs2)nc2cc(C(=O)N[C@@H](CC(C)C)C(=O)N3CCC(O)C3)ccc21 (stereo partly drawn) [Example 407, 1-(1-Ethyl-propyl)-2-thiophen-2-ylmethyl-1H-benzoimidazole-5-carboxylic acid [(S)-1-(3-hydroxy-pyrrolidine-1-carbonyl)-3-methyl-butyl]-amide]",708 nM
16,"CCC(CC)n1c(Cc2cccs2)nc2cc(C(=O)NC(CO)c3ccccc3)ccc21 (centres unmarked) [Example 202, 1-(1-Ethyl-propyl)-2-thiophen-2-ylmethyl-1H-benzoimidazole-5-carboxylic acid (2-hydroxy-1-phenyl-ethyl)-amide]",14400 nM
17,"CCC(CC)n1c(Cc2cccs2)nc2cc(C(=O)N[C@@H](CC(C)C)C(=O)NC3CCN(C)CC3)ccc21 [Example 327, 1-(1-Ethyl-propyl)-2-thiophen-2-ylmethyl-1H-benzoimidazole-5-carboxylic acid [(S)-3-methyl-1-(1-methyl-piperidin-4-ylcarbamoyl)-butyl]-amide]",111 nM
18,"CCC(CC)n1c(Cc2cccs2)nc2cc(C(=O)N[C@@H](CC(C)C)C(=O)NCC(C)(C)CN3CCCCCC3)ccc21 [Example 287, 1-(1-Ethyl-propyl)-2-thiophen-2-ylmethyl-1H-benzoimidazole-5-carboxylic acid [(S)-1-(3-azepan-1-yl-2,2-dimethyl-propylcarbamoyl)-3-methyl-butyl]-amide]",408 nM
19,"CCC(CC)n1c(Cc2cccs2)nc2cc(C(=O)N[C@@H](CC(C)C)C(=O)NCC3CN(C)CCO3)ccc21 (stereo partly drawn) [Example 343, 1-(1-Ethyl-propyl)-2-thiophen-2-ylmethyl-1H-benzoimidazole-5-carboxylic acid {(S)-3-methyl-1-[(4-methyl-morpholin-2-ylmethyl)-carbamoyl]-butyl}-amide]",419 nM
20,"CCC(CC)n1c(Cc2cccs2)nc2cc(C(=O)N[C@@H](CC(C)C)C(=O)N3CCCN(Cc4ccccc4)CC3)ccc21 [Example 323, 1-(1-Ethyl-propyl)-2-thiophen-2-ylmethyl-1H-benzoimidazole-5-carboxylic acid [(S)-1-(4-benzyl-[1,4]diazepane-1-carbonyl)-3-methyl-butyl]-amide]",6740 nM
21,"CCC(CC)n1c(Cc2cccs2)nc2cc(C(=O)N[C@@H](CC(C)C)C(=O)N[C@@H](C)c3ccccc3F)ccc21 [Example 262, 1-(1-Ethyl-propyl)-2-thiophen-2-ylmethyl-1H-benzoimidazole-5-carboxylic acid {(S)-1-[(S)-1-(2-fluoro-phenyl)-ethylcarbamoyl]-3-methyl-butyl}-amide]",4550 nM
22,"CCCC[C@H](NC(=O)c1ccc2c(c1)nc(Cc1cccs1)n2C1CCCCC1C)C(=O)O (single isomer, unassigned) [Example 423]",9730 nM
23,"CCc1ccc(CC(NC(=O)c2ccc3c(c2)nc(Cc2cccs2)n3C(CC)CC)C(=O)O)cc1 (centres unmarked) [Example 30, 3-(4-Ethyl-phenyl)-2-{[1-(1-ethyl-propyl)-2-thiophen-2-ylmethyl-1H-benzoimidazole-5-carbonyl]-amino}-propionic acid]",2200 nM
